Measurements: patent publication US20030171393A1, “Drugs for sex dysfunctions” (priority 2000, published 2003)
Counter-ions that a name gives are not always drawn.

What was measured:
[1] = tested on: aorta; assay: Relaxation in vitro of aorta tissue precontracted with phenylephrine (undesired hypotensive effect); format: cell-based, White New Zealand rabbits; conditions: tissue precontracted with phenylephrine 10 μM
Description: (§1) The relaxing effect of the tested drugs on carvernous body tissues has been evaluated with experiments in vitro as a measure of the inhibiting action on the impotence, and on aorta tissues as expression of the undesired hypotensive effect.
(§2) White New Zealand rabbits were sacrificed, cavernous body and aorta specimens were taken and suitably prepared for the determination of the myorelaxing activity in vitro, according to the procedure described by J. Jeremy (Br. J. Urology 79,958-63,1997).
(§3) The tissues were precontracted with phenylephrine (10 μM) and the relaxation was determined in the presence of the compounds object of the invention.
(§4) The 2-(acetyloxy)benzoic acid 6-(nitroxy methyl)-2-methylpyridyl ester hydrochloride (NCX 4050) is prepared as described in patent application PCT/EP 00/01454 (Ex. 1) , the sildenafil nitrate has been prepared as described in patent application WO 99/67231 (Ex. 3). The products used in the experiment were dissolved in dimethylsulphoxide, except sodium nitroprussiate which was dissolved in distilled water.

[2] = tested on: cavernous body; assay: Relaxation in vitro of cavernous body tissue precontracted with phenylephrine; format: cell-based, White New Zealand rabbits; conditions: for Cavernous body % relaxation: tissue precontracted with phenylephrine 10 μM; for Power ratio: ratio between myorelaxing effect on cavernous body and effect on aorta
Description: as §1, §2, §3, §4

[3] = tested on: aorta tissues pretreated with sodium nitroprussiate; assay: Aorta relaxation in vitro in the presence of the NO-donor sodium nitroprussiate; format: cell-based, white New Zealand rabbits; conditions: 10^−7 M; for Aorta relaxation: strips first treated with sodium nitroprussiate 10^−7 M, percentage with respect to the initial sodium nitroprussiate treatment
Protocol: The experiment was carried out as described in the previous Example, by using aorta tissues taken from white New Zealand rabbits.

sildenafil nitrate
Aorta % ([1]; concentration 10^-6 M): 20%
Cavernous body % relaxation ([2]; concentration 10^-6 M): 100%
Power ratio ([2]; concentration 10^-6 M): 5
Power ratio ([2]; concentration 10^-6 M, listed as sildenafil nitrate): clearly in favour of the myorelaxing effect
Strengthening of the relaxing effect induced by sodium nitroprussiate (hypotensive effect), in words ([3]; aorta strips pretreated with sodium nitroprussiate 10^−7 M): lower strengthening of the relaxing effect induced by sodium nitroprussiate compared with the sildenafil citrate
Aorta relaxation [3]: 120%

CC(=O)Oc1ccccc1C(=O)Oc1ccc(CO[N+](=O)[O-])nc1C.Cl [NCX 4050, 2-(acetyloxy)benzoic acid 6-(nitroxymethyl)-2-methylpyridyl ester hydrochloride]
Aorta % ([1]; concentration 10^-6 M): 80%
Cavernous body % relaxation ([2]; concentration 10^-6 M): 80%
Power ratio ([2]; concentration 10^-6 M): 1

CCCc1nn(C)c2c(=O)[nH]c(-c3cc(S(=O)(=O)N4CCN(C)CC4)ccc3OCC)nc12 [Sildenafil Citrate, sildenafil citrate, reference compound]
Aorta % ([1]; concentration 3 × 10^-5 M): 75%
Cavernous body % relaxation ([2]; concentration 3 × 10^-5 M): 50%
Aorta relaxation [3]: 170%
